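Five compound concentrations were applied to cells in 96-well plates for 48 hours; endpoints were derived by simple linear interpolation of the resulting dose-response curve. Definition used: TGI = concentration required for complete inhibition of growth.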 Bounds are passed on as bounds.

One assay has as its system CAKI-1 renal. Briefly: DTP human tumour cell line panel, 48 h.
As for `Cc1nc2c(sc3nc4c(cc32)CCC4)c(=O)o1`, the TGI – broadly, the concentration giving total growth inhibition – is over 100 µM.

Compound `COc1ccccc1C1c2cc3c(cc2OC2(OC)COC(=O)C12)OCO3` (stereo not drawn) yielded a TGI of over 100 µM.

`COc1ccc(/C(Nc2ccccc2)=C(\CCl)c2ccccc2)cc1OC`: the concentration for total growth inhibition (TGI) was over 100 µM.

A further assay concerns SK-MEL-28 melanoma. Briefly: DTP human tumour cell line panel, 48 h.
In turn, `Cc1nc2c(sc3nc4c(cc32)CCC4)c(=O)o1` came in with a TGI of over 100 µM.

Compound `COc1ccccc1C1c2cc3c(cc2OC2(OC)COC(=O)C12)OCO3` (stereo not drawn) registered a TGI of 44.2 µM.

The compound `COc1ccc(/C(Nc2ccccc2)=C(\CCl)c2ccccc2)cc1OC` displayed a TGI of over 100 µM.

The next assay concerns CCRF-CEM leukemia. Briefly: DTP human tumour cell line panel, 48 h.
`Cc1nc2c(sc3nc4c(cc32)CCC4)c(=O)o1`: the TGI is over 88.9 µM.

In turn, `COc1ccccc1C1c2cc3c(cc2OC2(OC)COC(=O)C12)OCO3` (stereo not drawn) returned a concentration for total growth inhibition (TGI) of 75.6 µM.

`COc1ccc(/C(Nc2ccccc2)=C(\CCl)c2ccccc2)cc1OC` returned a total growth inhibition concentration (TGI) of 65.5 µM.

The subject of the next assay is SW-620 colon. Briefly: DTP human tumour cell line panel, 48 h.
Take `Cc1nc2c(sc3nc4c(cc32)CCC4)c(=O)o1`: the TGI is over 100 µM.

`COc1ccccc1C1c2cc3c(cc2OC2(OC)COC(=O)C12)OCO3` (stereo not drawn) registered a TGI of over 100 µM.

In the case of `COc1ccc(/C(Nc2ccccc2)=C(\CCl)c2ccccc2)cc1OC`, the TGI was over 100 µM.

The test system of another assay is HOP-62 NSCLC. As to the kind of experiment: DTP human tumour cell line panel, 48 h.
`Cc1nc2c(sc3nc4c(cc32)CCC4)c(=O)o1` showed a TGI of over 100 µM.

Take `COc1ccccc1C1c2cc3c(cc2OC2(OC)COC(=O)C12)OCO3` (stereo not drawn): the TGI was over 91.2 µM.

The compound `COc1ccc(/C(Nc2ccccc2)=C(\CCl)c2ccccc2)cc1OC` displayed a TGI of over 100 µM.

The next assay deals with ACHN renal. As to the kind of experiment: DTP human tumour cell line panel, 48 h.
In turn, `Cc1nc2c(sc3nc4c(cc32)CCC4)c(=O)o1` yielded a TGI of over 100 µM.

`COc1ccccc1C1c2cc3c(cc2OC2(OC)COC(=O)C12)OCO3` (stereo not drawn) returned a TGI of over 100 µM.

In turn, `COc1ccc(/C(Nc2ccccc2)=C(\CCl)c2ccccc2)cc1OC` returned a TGI of over 100 µM.

Another assay has as its system RXF 393 renal. As to the kind of experiment: DTP human tumour cell line panel, 48 h.
`Cc1nc2c(sc3nc4c(cc32)CCC4)c(=O)o1`: the TGI is over 100 µM.

`COc1ccccc1C1c2cc3c(cc2OC2(OC)COC(=O)C12)OCO3` (stereo not drawn): the TGI worked out at 44.2 µM.

For `COc1ccc(/C(Nc2ccccc2)=C(\CCl)c2ccccc2)cc1OC`, the TGI was over 100 µM.

The test system of the next assay is KM12 colon. As to the kind of experiment: DTP human tumour cell line panel, 48 h.
`Cc1nc2c(sc3nc4c(cc32)CCC4)c(=O)o1` had a TGI of over 100 µM.

`COc1ccccc1C1c2cc3c(cc2OC2(OC)COC(=O)C12)OCO3` (stereo not drawn) registered a TGI of 45.5 µM.

Take `COc1ccc(/C(Nc2ccccc2)=C(\CCl)c2ccccc2)cc1OC`: the TGI was over 100 µM.

For a further assay, the system named is M14 melanoma. Briefly: DTP human tumour cell line panel, 48 h.
Turning to `Cc1nc2c(sc3nc4c(cc32)CCC4)c(=O)o1`, the TGI was over 100 µM.

`COc1ccccc1C1c2cc3c(cc2OC2(OC)COC(=O)C12)OCO3` (stereo not drawn) gave a TGI of 43.3 µM.

Take `COc1ccc(/C(Nc2ccccc2)=C(\CCl)c2ccccc2)cc1OC`: the total growth inhibition concentration (TGI) was over 100 µM.

A further assay has as its system SF-539 CNS. Briefly: DTP human tumour cell line panel, 48 h.
In turn, `Cc1nc2c(sc3nc4c(cc32)CCC4)c(=O)o1` showed a TGI of over 70.8 µM.

The compound `COc1ccccc1C1c2cc3c(cc2OC2(OC)COC(=O)C12)OCO3` (stereo not drawn) showed a TGI of 33.4 µM.

For the compound `COc1ccc(/C(Nc2ccccc2)=C(\CCl)c2ccccc2)cc1OC`, the total growth inhibition concentration (TGI) is over 100 µM.

A further assay deals with NCI-H460 lung. Briefly: DTP human tumour cell line panel, 48 h.
`Cc1nc2c(sc3nc4c(cc32)CCC4)c(=O)o1` showed a TGI of over 100 µM.

The compound `COc1ccccc1C1c2cc3c(cc2OC2(OC)COC(=O)C12)OCO3` (stereo not drawn) displayed a TGI of over 100 µM.

Consider `COc1ccc(/C(Nc2ccccc2)=C(\CCl)c2ccccc2)cc1OC`, for which the TGI is over 100 µM.

Another assay concerns SK-MEL-2 melanoma. Briefly: DTP human tumour cell line panel, 48 h.
As for `Cc1nc2c(sc3nc4c(cc32)CCC4)c(=O)o1`, the TGI is over 100 µM.

The compound `COc1ccccc1C1c2cc3c(cc2OC2(OC)COC(=O)C12)OCO3` (stereo not drawn) showed a concentration for total growth inhibition (TGI) of 55.6 µM.

In turn, `COc1ccc(/C(Nc2ccccc2)=C(\CCl)c2ccccc2)cc1OC` registered a TGI of 79.9 µM.

The next assay relates to SK-OV-3 ovarian. As to the kind of experiment: DTP human tumour cell line panel, 48 h.
As for `Cc1nc2c(sc3nc4c(cc32)CCC4)c(=O)o1`, the TGI is over 100 µM.

On to `COc1ccccc1C1c2cc3c(cc2OC2(OC)COC(=O)C12)OCO3` (stereo not drawn), for which the TGI amounted to 70.1 µM.

For the compound `COc1ccc(/C(Nc2ccccc2)=C(\CCl)c2ccccc2)cc1OC`, the TGI was over 100 µM.

The test system of the next assay is HOP-92 NSCLC. Briefly: DTP human tumour cell line panel, 48 h.
Take `Cc1nc2c(sc3nc4c(cc32)CCC4)c(=O)o1`: the TGI is over 96.4 µM.

As for `COc1ccccc1C1c2cc3c(cc2OC2(OC)COC(=O)C12)OCO3` (stereo not drawn), the total growth inhibition concentration (TGI) was over 93.8 µM.

Compound `COc1ccc(/C(Nc2ccccc2)=C(\CCl)c2ccccc2)cc1OC` registered a TGI of over 100 µM.

The next assay relates to HCC-2998 colon. Briefly: DTP human tumour cell line panel, 48 h.
In turn, `Cc1nc2c(sc3nc4c(cc32)CCC4)c(=O)o1` registered a TGI of over 100 µM.

For `COc1ccccc1C1c2cc3c(cc2OC2(OC)COC(=O)C12)OCO3` (stereo not drawn), the TGI was over 63.8 µM.

In the case of `COc1ccc(/C(Nc2ccccc2)=C(\CCl)c2ccccc2)cc1OC`, the TGI is over 100 µM.

A further assay deals with HT29 colon. As to the kind of experiment: DTP human tumour cell line panel, 48 h.
Compound `Cc1nc2c(sc3nc4c(cc32)CCC4)c(=O)o1` came in with a TGI of over 100 µM.

For `COc1ccccc1C1c2cc3c(cc2OC2(OC)COC(=O)C12)OCO3` (stereo not drawn), the TGI amounted to 22.9 µM.

`COc1ccc(/C(Nc2ccccc2)=C(\CCl)c2ccccc2)cc1OC` gave a total growth inhibition concentration (TGI) of over 100 µM.

Source of the values: PubChem BioAssay (NCI).
